The subject of the experiment is 699152-130-R-J1-PDC complex spheroid growth. Description: Anticancer human tumor 699152-130-R-J1-PDC patient-derived pancreatic carcinoma cell line growth inhibition [AhR]. The settings on record: for viability, T/C: stronger effect = lower value. Put shortly: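 Spheroids combined tumor cells with HUVEC endothelial cells and human MSCs as stroma. AhR antagonists were paired with standard or investigational drugs, each dosed in half-log steps down from near clinical Cmax, or from 10 microM where Cmax was unknown.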

Setting [1] is: curve of first compound, second compound 0.1 µM.
[2] abbreviates: curve of first compound, second compound 0.316 µM.
Setting [3] is: curve of first compound, second compound 1 µM.
The mark [4] stands for this setting: curve of first compound, second compound 3.16 µM.
Where [5] appears, read: curve of first compound, second compound 10 µM.
[6] abbreviates: second compound 0.1 µM, first compound 0.0316 µM.
The mark [7] stands for this setting: second compound 0.1 µM, first compound 0.1 µM.
The mark [8] stands for this setting: second compound 0.1 µM, first compound 0.316 µM.
The mark [9] stands for this setting: second compound 0.1 µM, first compound 1 µM.
The mark [10] stands for this setting: second compound 0.316 µM, first compound 0.0316 µM.
Where [11] appears, read: second compound 0.316 µM, first compound 0.1 µM.
[12] abbreviates: second compound 0.316 µM, first compound 0.316 µM.
Where [13] appears, read: second compound 0.316 µM, first compound 1 µM.
[14] abbreviates: second compound 1 µM, first compound 0.0316 µM.
The mark [15] stands for this setting: second compound 1 µM, first compound 0.1 µM.
Where [16] appears, read: second compound 1 µM, first compound 0.316 µM.
The mark [17] stands for this setting: second compound 1 µM, first compound 1 µM.
Where [18] appears, read: second compound 3.16 µM, first compound 0.0316 µM.
Where [19] appears, read: second compound 3.16 µM, first compound 0.1 µM.
[20] abbreviates: second compound 3.16 µM, first compound 0.316 µM.
Setting [21] is: second compound 3.16 µM, first compound 1 µM.
[22] abbreviates: second compound 10 µM, first compound 0.0316 µM.
The mark [23] stands for this setting: second compound 10 µM, first compound 0.1 µM.
The mark [24] stands for this setting: second compound 10 µM, first compound 0.316 µM.
Where [25] appears, read: second compound 10 µM, first compound 1 µM.
Setting [26] is: second compound 0.1 µM, first compound 0.00316 µM.
[27] abbreviates: second compound 0.1 µM, first compound 0.01 µM.
Where [28] appears, read: second compound 0.316 µM, first compound 0.00316 µM.
The mark [29] stands for this setting: second compound 0.316 µM, first compound 0.01 µM.
The mark [30] stands for this setting: second compound 1 µM, first compound 0.00316 µM.
Where [31] appears, read: second compound 1 µM, first compound 0.01 µM.
Setting [32] is: second compound 3.16 µM, first compound 0.00316 µM.
Setting [33] is: second compound 3.16 µM, first compound 0.01 µM.
Setting [34] is: second compound 10 µM, first compound 0.00316 µM.
[35] abbreviates: second compound 10 µM, first compound 0.01 µM.

Where “and” joins values, the source holds several entries; their conditions need not be identical. Equal entries are not always repeated.
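Note: compound exposure lasted 7 days after spheroids had grown for 3 days.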

`CC1COCCN1c1cc(C2(S(C)(=N)=O)CC2)nc(-c2ccnc3[nH]ccc23)n1` (stereo unspecified): the viability, T/C was 100% and 99.4% and 98.3% (compound 0.0316 µM); 103% and 95.1% and 112% (compound 0.1 µM); 91.5% and 95.4% and 103% (compound 0.316 µM); 96.7% and 88.4% and 104% (compound 1 µM); 93% and 82.9% and 89.2% (compound 3.16 µM); 78% and 67.5% and 71.1% (compound 10 µM). For the same compound, the IC50 (curve of compound) was more than 10 µM.
In the case of `CC1(C)CCC(CN2CCN(c3ccc(C(=O)NS(=O)(=O)c4ccc(NCC5CCOCC5)c([N+](=O)[O-])c4)c(Oc4cnc5[nH]ccc5c4)c3)CC2)=C(c2ccc(Cl)cc2)C1`, the viability, T/C reads like this: (compound 0.0316 µM) 99.2% and 99% and 94.1%; (compound 0.1 µM) 122% and 97.6% and 103%; (compound 0.316 µM) 110% and 102% (2×); (compound 1 µM) 100% and 106% and 101%; (compound 3.16 µM) 106% and 89.5% and 115%; (compound 10 µM) 94% and 64.3% and 58.6%. The half-inhibitory concentration (IC50) (curve of compound) was more than 10 µM.
Regarding `COc1cccc2c1C(=O)c1c(O)c3c(c(O)c1C2=O)CC(O)(C(=O)CO)CC3OC1CC(N)C(O)C(C)O1` (stereo unspecified) + Cc1cncc(-c2nc(NCCc3c[nH]c4ccccc34)c3ncn(C(C)C)c3n2)c1, the 50% inhibitory concentration (IC50) by setting is: under setting [1], 0.349 µM; under setting [2], 0.342 µM; under setting [3], 0.356 µM; under setting [4], 0.117 µM; under setting [5], less than 0.0316 µM. Moreover, the viability, T/C by setting is: under setting [6], 67.3%; under setting [7], 64.1%; under setting [8], 51.4%; under setting [9], 25.4%; (second compound 0.1 µM, first compound 3.16 µM) 2.77%; (second compound 0.1 µM, first compound 10 µM) 7.37%. For the same compound, the viability, T/C was 62.9% under setting [10]; 58.7% under setting [11]; 51.6% under setting [12]; 22.9% under setting [13]; 2.99% (second compound 0.316 µM, first compound 3.16 µM); 7.49% (second compound 0.316 µM, first compound 10 µM). Moreover, the viability, T/C was 70.8% under setting [14]; 71.5% under setting [15]; 52.5% under setting [16]; 20.9% under setting [17]; 3.69% (second compound 1 µM, first compound 3.16 µM); 6.86% (second compound 1 µM, first compound 10 µM). The viability, T/C under setting [18] is 51.5%; the viability, T/C under setting [19] is 53.3%; the viability, T/C under setting [20] is 34.7%; the viability, T/C under setting [21] is 5.89%; the viability, T/C (second compound 3.16 µM, first compound 3.16 µM) was 4.86%; the viability, T/C (second compound 3.16 µM, first compound 10 µM) is 7.43%. In addition, the viability, T/C runs as follows: under setting [22], 14.6%; under setting [23], 16.3%; under setting [24], 14.2%; under setting [25], 1.29%; (second compound 10 µM, first compound 3.16 µM) 5.06%; (second compound 10 µM, first compound 10 µM) 5.36%.
On to `CC1COCCN1c1cc(-c2ccnn2C)c2ccnc(-c3ccn[nH]3)c2n1` (stereo unspecified) + Cc1ccccc1N=Nc1ccc(NC(=O)c2ccnn2C)c(C)c1, for which the IC50 is, setting by setting: under setting [1], more than 1 µM; under setting [2], more than 1 µM; under setting [3], more than 1 µM; under setting [4], more than 1 µM; under setting [5], more than 1 µM. For the same compound, the viability, T/C runs as follows: under setting [26], 105%; under setting [27], 100%; under setting [6], 94.6%; under setting [7], 84.1%; under setting [8], 83.3%; under setting [9], 62.6%. The viability, T/C is 87.8% under setting [28]; 96.9% under setting [29]; 101% under setting [10]; 82.7% under setting [11]; 68.3% under setting [12]; 61.9% under setting [13]. Further, the viability, T/C was 99.8% under setting [30]; 110% under setting [31]; 101% under setting [14]; 93.5% under setting [15]; 79.5% under setting [16]; 66.9% under setting [17]. For the same compound, the viability, T/C by setting is: under setting [32], 105%; under setting [33], 110%; under setting [18], 101%; under setting [19], 89.3%; under setting [20], 72.1%; under setting [21], 60.1%. The viability, T/C runs as follows: under setting [34], 119%; under setting [35], 128%; under setting [22], 103%; under setting [23], 116%; under setting [24], 80.8%; under setting [25], 65.9%.
As to `Nc1ccccc1NC(=O)c1ccc(CNC(=O)OCc2cccnc2)cc1`, the viability, T/C runs as follows: (compound 0.0316 µM) 91.4% and 87.2% and 106%; (compound 0.1 µM) 96.6% and 89.1% and 109%; (compound 0.316 µM) 96.1% and 93.6% and 116%; (compound 1 µM) 97.1% and 103% and 95%; (compound 3.16 µM) 76.1% and 86% and 93.4%; (compound 10 µM) 39.1% and 38.4% and 42.8%. Besides, the 50% inhibitory concentration (IC50) (curve of compound) is 7.13 µM and 7.65 µM and 8.49 µM.
For `CC1COCCN1c1cc(-c2ccnn2C)c2ccnc(-c3ccn[nH]3)c2n1` (stereo unspecified) + CC(CO)NC(=O)c1cc(-c2ccc(Cl)cc2)nn(-c2cnn(C)c2)c1=O, the IC50 runs as follows: under setting [1], more than 1 µM; under setting [2], more than 1 µM; under setting [3], more than 1 µM; under setting [4], more than 1 µM; under setting [5], more than 1 µM. Further, the viability, T/C reads like this: under setting [26], 105%; under setting [27], 112%; under setting [6], 112%; under setting [7], 94.2%; under setting [8], 86.8%; under setting [9], 63.3%. Also, the viability, T/C reads like this: under setting [28], 102%; under setting [29], 100%; under setting [10], 110%; under setting [11], 92.1%; under setting [12], 77.7%; under setting [13], 59.1%. Further, the viability, T/C is, setting by setting: under setting [30], 102%; under setting [31], 101%; under setting [14], 105%; under setting [15], 87.5%; under setting [16], 72.3%; under setting [17], 58.3%. The viability, T/C by setting is: under setting [32], 85.8%; under setting [33], 105%; under setting [18], 84.6%; under setting [19], 80.1%; under setting [20], 74%; under setting [21], 65%. In addition, the viability, T/C reads like this: under setting [34], 97.7%; under setting [35], 82.7%; under setting [22], 81.5%; under setting [23], 73.9%; under setting [24], 64.6%; under setting [25], 58.1%.

As usually defined, the viability, T/C is the ratio of treated to control. For orientation: IC50 means the point on the concentration scale where inhibition reaches its midpoint.
